Reference: the NIST ThermoML archive (doi:10.1016/j.tca.2017.04.014)

Assays:
[1] = 298.15 K, 101.3 kPa, Crystal
[2] = molar heat capacity at constant pressure; details: 101.33 kPa, Crystal, DSC
[3] = xn = mol fraction of the nth substance listed; details: 298.15 K, 101.3 kPa, Crystal, x2 = 0
[4] = molar heat capacity at constant pressure; xn = mol fraction of the nth substance listed; details: 101.3 kPa, Crystal, DSC, x2 = 0

[O-2].[O-2].[Th+4] [thorium dioxide]
Details	mass density [kg/m3]	molar heat capacity at constant pressure [J/K/mol]
[1], From pellet mass and volume	9390	–
[1], X-ray diffraction	10000	–
[1], buoyancy	9430	–
[2], 300 K	–	62.1
[2], 310 K	–	61.8
[2], 320 K	–	62.8
[2], 330 K	–	63.5
[2], 340 K	–	64.2
[2], 350 K	–	65.1
[2], 360 K	–	65.6
[2], 370 K	–	65.9
[2], 380 K	–	66.8
[2], 390 K	–	67.3
[2], 400 K	–	67.7
[2], 410 K	–	68
[2], 420 K	–	68.4
[2], 430 K	–	68.6
[2], 440 K	–	68.9
[2], 450 K	–	69.6
[2], 460 K	–	69.8
[2], 470 K	–	70.1
[2], 480 K	–	70.2
[2], 490 K	–	70.5
[2], 500 K	–	70.7
[2], 510 K	–	70.9
[2], 520 K	–	71.2
[2], 530 K	–	71.4
[2], 540 K	–	71.7
[2], 550 K	–	71.9
[2], 560 K	–	72
[2], 570 K	–	72.1
[2], 580 K	–	72.3
[2], 590 K	–	72.5
[2], 600 K	–	72.5
[2], 610 K	–	72.5
[2], 620 K	–	73
[2], 630 K	–	73
[2], 640 K	–	73.3
[2], 650 K	–	73.6
[2], 660 K	–	73.5
[2], 670 K	–	73.6
[2], 680 K	–	73.6
[2], 690 K	–	73.4
[2], 700 K	–	73.8
[2], 710 K	–	74.5
[2], 720 K	–	74.5
[2], 730 K	–	74.6
[2], 739 K	–	74.7
[2], 750 K	–	74.6
[2], 760 K	–	75
[2], 770 K	–	75.3
[2], 780 K	–	75.3
[2], 790 K	–	75.3
[2], 800 K	–	75.7
[2], 810 K	–	75.7
[2], 820 K	–	75.7
[2], 830 K	–	75.9
[2], 840 K	–	76
[2], 850 K	–	76.1
[2], 860 K	–	76.4
[2], 870 K	–	76.1

[O-2].[O-2].[U+4] [uranium dioxide] + [O-2].[O-2].[Th+4]
Details	mass density [kg/m3]	molar heat capacity at constant pressure [J/K/mol]
[3], From pellet mass and volume	10570	–
[3], X-ray diffraction	10970	–
[3], buoyancy	10660	–
[4], 300 K	–	64.6
[4], 310 K	–	66.2
[4], 320 K	–	66.8
[4], 330 K	–	67.7
[4], 340 K	–	68.7
[4], 350 K	–	69.1
[4], 360 K	–	69.5
[4], 370 K	–	70.5
[4], 380 K	–	71.2
[4], 390 K	–	71.2
[4], 400 K	–	72.5
[4], 410 K	–	72.8
[4], 420 K	–	73.4
[4], 430 K	–	73.5
[4], 440 K	–	74.4
[4], 450 K	–	74.6
[4], 460 K	–	74.9
[4], 470 K	–	75.5
[4], 480 K	–	76.2
[4], 490 K	–	76.4
[4], 500 K	–	76.5
[4], 510 K	–	76.6
[4], 520 K	–	76.7
[4], 530 K	–	77.1
[4], 540 K	–	77
[4], 550 K	–	77.1
[4], 560 K	–	77.3
[4], 570 K	–	77.9
[4], 580 K	–	78.2
[4], 590 K	–	79
[4], 600 K	–	79.1
[4], 610 K	–	79.7
[4], 620 K	–	79.4
[4], 630 K	–	79.6
[4], 640 K	–	80.3
[4], 650 K	–	79.8
[4], 660 K	–	80.5
[4], 670 K	–	80.5
[4], 680 K	–	80.7
[4], 690 K	–	81.1
[4], 700 K	–	80.4
[4], 710 K	–	80.8
[4], 720 K	–	81.2
[4], 730 K	–	81.7
[4], 740 K	–	82.2
[4], 750 K	–	82.9
[4], 760 K	–	82.4
[4], 770 K	–	82.7
[4], 780 K	–	83.4
[4], 790 K	–	83.9
[4], 800 K	–	83.7
[4], 810 K	–	84.1
[4], 820 K	–	83.8
[4], 830 K	–	84.2
[4], 840 K	–	84.1
[4], 850 K	–	83.7
[4], 860 K	–	84.1
[4], 870 K	–	84.5
